Measured values as given in publication PMC12947280, “An Antifungal with a Novel Mechanism of Action Discovered via Resistance Gene-Guided Genome Mining” (ACS Central Science, 2026).
Values after ≈ are worked out from the molar mass of the structure shown. Read-outs that look alike come from different tables or passages of the source.

How the values were obtained:
Assay in all cases: Antifungal screening, broth microdilution MIC
Format in all cases: cell-based
[1] = test system: Aspergillus flavus ATCC 204304; conditions: for MIC: ATCC204304, Aspergillus flavus ATCC 204304
Experimental: (§1) Antifungal screening of 1
(§2) Antifungal screening was performed by Micromyx, LLC (Kalamazoo, Michigan, USA). Test organisms were either reference strains from the American Type Culture Collection (ATCC; Manassas, VA), the Centers for Disease Control and Prevention (CDC; Atlanta, GA), or clinical isolates from the Micromyx (MMX) collection. Upon receipt at Micromyx, the isolates were streaked under suitable conditions onto agar medium appropriate to each organism. The yeast isolates were incubated for 24 hr at 35 °C and the fungi were incubated for 7 to 13 days at 35 °C, as appropriate. Colonies harvested from these growth plates were resuspended in the appropriate medium containing a cryoprotectant. Aliquots of each suspension were then frozen […]
(§3) Prior to testing, the yeast isolates were streaked from frozen vials onto Sabouraud Dextrose Agar (SAB; Becton Dickenson [BD]/BBL; Sparks, MD, Lot No. 2228660) and were incubated at 35°C for 24 hr. Additional fungal isolates were streaked from frozen vials onto potato dextrose agar (BD/BBL; Sparks, MD, Lot No. 2046481) and incubated under optimal conditions for […]
(§4) All MIC measurements were performed in RPMI1640 from Hyclone Laboratories (Logan, UT;
(§5) Cat. No. SH3001104; Lot No. AC10257966A) buffered with MOPS to pH-7 from Millipore […]
(§6) MIC values were determined using a broth microdilution procedure described by CLSI. 5,6.
(§7) Automated liquid handlers (Multidrop 384, Labsystems, Helsinki, Finland; Biomek 3000 and […]
(§8) Biomek FX, Beckman Coulter Fullerton CA) were used to conduct serial dilutions and liquid […]
(§9) Solutions of 1 were added in an 11 point 2x serial dilution in DMSO with a maximum tested concentration of 32 μg/ml in the culture medium. Drug solution was added at 1% v/v into 200 μl […]
(§10) A standardized inoculum of each test organism was prepared in appropriate media per CLSI methods.5,6 The plates were then inoculated with 10 µL of the diluted inoculum using the Biomek 3000 from low to high drug concentration, resulting in a final concentration of approximately 0.5 to 2.5 x 10^3 CFU/mL for yeast and 0.2 to 2.5 x 10^4 CFU/mL for the other fungi. An un-inoculated plate was incubated for the purpose of assessing solubility of the drug […]
(§11) The plates were stacked 3 to 4 high, covered with a sterile lid on the top plate, and incubated aerobically at 35 °C for 24, 48, and 72 h. For yeast, both the MIC based on complete inhibition and 50% inhibition were reported at 24 and 48 h. For other fungal isolates, the MIC values were recorded at 24 and 48 hr and were based on complete inhibition and 50% inhibition.
(§12) Intact protein LCMS analysis
(§13) 10 μM of recombinant S. cerevisiae ALS was incubated with 10 μM compound 1 in buffer (50 mM Tris pH 7.5, 100 mM KCl, 10 uM FAD, 1 mM TPP, 10 mM MgCl2 (with 2.5% DMSO from compound)) at 22 °C for 30 min. Unreacted 1 was removed by passing the reaction mixture through a 30 kDa MWCO filter (Millipore). The collected protein was then denatured and reduced by incubation with 6 M urea and 10 mM DTT at 37 °C for 1 h followed by 20 mM iodoacetamide alkylation for 30 min in dark. This reaction mixture then underwent buffer exchange into 100 mM Tris-HCl pH 8.0 and 10 mM CaCl2 buffer using a 30 kDa MWCO filter.
(§14) The protein was then incubated with sequencing grade chymotrypsin (Promega) (15:1,w/w) for […]
(§15) After digestion, the peptide mixture was immediately analysed by LC-MS/MS using a Waters I-class UPLC equipped with an ACQUITY UPLC BEH C18 column (2.1x50 mm, 1.7 µm, Waters) at 50 °C coupled to a Waters Synapt G2Si MS. The sample was injected and subjected to an LC gradient starting from 0.5% mobile phase B (ACN with 0.1% formic acid) for 5 min with linear increase to 40% B over 35 min. Mobile phase A was 0.1% formic acid water. Flow rate was maintained at 0.3 ml/min. MS/MS data was acquired in positive ionization mode with data dependent MS/MS acquisition. Peptide mapping was performed with PEAKs Studio 8.0 (Bioinformatics Solutions Inc.) followed by manual review to identify peptides putatively modified by covalent addition of 1. […]

[2] = test system: Aspergillus terreus ATCC MYA-3628; conditions: for MIC: Aspergillus terreus ATCC MYA-3628
Experimental: as §1, §2, §3, §4, §5, §6, §7, §8, §9, §10, §11, §12, §13, §14, §15

[3] = test system: Fusarium solani ATCC MYA-3636; conditions: for MIC: Fusarium solani ATCC MYA-3636
Experimental: as §1, §2, §3, §4, §5, §6, §7, §8, §9, §10, §11, §12, §13, §14, §15

[4] = test system: Mucor circinelloides ATCC 24905; conditions: for MIC: ATCC24905, Mucor circinelloides ATCC 24905
Experimental: as §1, §2, §3, §4, §5, §6, §7, §8, §9, §10, §11, §12, §13, §14, §15

[5] = test system: Scedosporium apiospermum ATCC MYA-3635; conditions: for MIC: Scedosporium apiospermum ATCC MYA-3635
Experimental: as §1, §2, §3, §4, §5, §6, §7, §8, §9, §10, §11, §12, §13, §14, §15

[6] = test system: Scedosporium prolificans ATCC 11274; conditions: for MIC: Lomentospora prolificans, ATCC11274, Scedosporium prolificans ATCC 11274
Experimental: as §1, §2, §3, §4, §5, §6, §7, §8, §9, §10, §11, §12, §13, §14, §15

[7] = 24 hr, read-out: MIC 100% growth inhibition
[8] = 24 hr, read-out: MIC >50% growth inhibition
[9] = 48 hr, read-out: MIC 100% growth inhibition
[10] = 48 hr, read-out: MIC >50% growth inhibition

Question: Which results are given for `CCCC1C(C)=CC2CC=CC3(C)C2C1C(=O)C31C(=O)NC(CCCO)C1=O` (stereo not drawn) [compound 1]?
Answer: MIC [1, 7]: > 32 µg/mL; MIC [1, 8]: > 32 µg/mL; MIC [1, 9]: > 32 µg/mL; MIC [1, 10]: > 32 µg/mL; MIC (Table S5) ([1]; Aspergillus flavus, species summary): > 32; MIC [2, 7]: > 32 µg/mL; MIC [2, 8]: > 32 µg/mL; MIC [2, 9]: > 32 µg/mL; MIC [2, 10]: > 32 µg/mL; MIC (Table S5) ([2]; Aspergillus terreus, species summary): > 32; MIC [3, 7]: > 32 µg/mL; MIC [3, 8]: > 32 µg/mL; MIC [3, 9]: > 32 µg/mL; MIC [3, 10]: > 32 µg/mL; MIC (Table S5) ([3]; Fusarium solani, species summary): > 32; MIC [4, 7]: 0.5 µg/mL (≈ 1.3 µM); MIC [4, 8]: 0.12 µg/mL (≈ 0.311 µM); MIC [4, 9]: 16 µg/mL (≈ 41.5 µM); MIC [4, 10]: 4 µg/mL (≈ 10.4 µM); MIC (Table S5) ([4]; Mucor circinelloides, species summary): 0.5; MIC [5, 7]: 8 µg/mL (≈ 20.8 µM); MIC [5, 8]: 1 µg/mL (≈ 2.59 µM); MIC [5, 9]: > 32 µg/mL; MIC [5, 10]: > 32 µg/mL; MIC (Table S5) ([5]; Scedosporium apiospermum, species summary): 8; MIC [6, 7]: 8 µg/mL (≈ 20.8 µM); MIC [6, 8]: 2 µg/mL (≈ 5.19 µM); MIC [6, 9]: > 32 µg/mL; MIC [6, 10]: > 32 µg/mL; MIC (Table S5) ([6]; Scedosporium prolificans, species summary): 8
